What is called IC50 is the concentration needed to halve the response being measured.

The test system of one assay is C-myc in KMS.12.BM cells. As to the kind of experiment: KMS.12.BM C-Myc ELISA Assay (Example C1). Type of assay: cell-based. Particulars: Homo sapiens, 2 h. As to the method:
KMS.12.BM C-Myc ELISA Assay
KMS.12.BM cell line (human myeloma) was purchased from JCRB (Osaka, Japan) and maintained in RPMI with 10% FBS culture medium. To measure the C-myc inhibitory activity of the compounds, the KMS.12.BM cells are plated in the RPMI culture medium at 75000 cells/well/per 200 μL into a 96-well flat bottom polystyrene tissue culture plate (Corning through VWR, NJ), in the presence or absence of a concentration range of test compounds. After 2 h, cells are pelleted and lysed with Cell Extraction Buffer (BioSource, Carlsbad, Calif.) in the presence of protease inhibitors (Life Technologies, Grand Island, N.Y. and Sigma, St Louis, Mo.). Clarified lyses are tested in a C-myc commercial ELISA (Life Technologies, Grand Island, N.Y.).
A general note: ELISA stands for enzyme-linked immunosorbent assay.

Assay [1] concerns the target T1, BRD4-BD2 (Homo sapiens (Human), UniProt O60885). Kind of assay: BRD4 AlphaScreen Assay (Example A2), BRD4-BD2. Particulars: read-out: BRD4 BD-2 enzyme IC50. Type of assay: binding. As to the method: (§1) BRD4-BD1 and BRD4-BD2 assays were conducted in white 384-well polystyrene plate in a final volume of 40 μL for BD1 and 60 μL for BD2. Inhibitors were first serially diluted in DMSO and added to the plate wells before the addition of other reaction components. […] The assays were carried out at room temperature in the assay buffer (50 mM Tris-HCl, pH 7.5, 0.01% Tween-20, 0.01% BSA, 5 mM DTT), containing 50 nM Biotin-labeled tetra-acetylated histone H4 peptide (H4Ac4) and BRD4-BD1 or BRD4-BD2 protein at concentration less than 1 nM. […] After plate sealing, the plate was incubated in the dark at room temperature for 75 min. before reading on a PHERAstar FS plate reader (BMG Labtech). IC50 determination was performed by fitting the curve of percent control activity versus the log of the inhibitor concentration using the GraphPad Prism 5.0 software.
For orientation: In Alpha technology, singlet oxygen from a donor bead excites a nearby acceptor bead.

Assay [2] has as its target T2, BRD4-BD1 (Homo sapiens (Human), UniProt O60885). Kind of assay: BRD4 AlphaScreen Assay (Example A2), BRD4-BD1. The class given is binding. The settings on record: read-out: BRD4 BD-1 enzyme IC50. As to the method: as §1
Another assay relates to KMS.12.BM cells. As to the kind of experiment: KMS.12.BM Cell Viability Assay (Example B1). The class given is cell-based, human. Particulars: 3 days, Cell Titer-GLO, read-out: KMS cellular IC50. A digest of the protocol:
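KMS.12.BM human myeloma cells, 5000 cells/well in RPMI with 10% FBS, exposed to a compound concentration range for 3 days. Viable cells measured by ATP-based Cell Titer-GLO luminescence after 10 min at room temperature.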
A general note: ATP-based viability assays read luminescence as a measure of living cells.

The target in assay [3] is T2, BRD4-BD1. As to the kind of experiment: BRD4 AlphaScreen Assay (Example A1), BRD4-BD1. The class given is binding. The settings on record: H4Ac4 peptide, 3.8 nM BRD4-BD1, read-out: BRD4 BD-1 enzyme IC50. As to the method:
(§2) BRD4-BD1 and BRD4-BD2 assays were conducted in white 384-well polystyrene plate in a final volume of 20 μL for BD1 and 40 μL for BD2. Inhibitors were first serially diluted in DMSO and added to the plate wells before the addition of other reaction components. […] After plate sealing, the plate was incubated in the dark at room temperature for 75 min. before reading on a PHERAstar FS plate reader (BMG Labtech). IC50 determination was performed by fitting the curve of percent control activity versus the log of the inhibitor concentration using the GraphPad Prism 5.0 software.

In assay [4] the target is T1, BRD4-BD2. Kind of assay: BRD4 AlphaScreen Assay (Example A1), BRD4-BD2. Particulars: H4Ac4 peptide, 20 nM BRD4-BD2, read-out: BRD4 BD-2 enzyme IC50. The class given is binding. As to the method: as §2

Where two headings read alike, the source gives them in different places.

As for `Cc1noc(C)c1-c1ccc2[nH]c(=O)n3c2c1OCC3c1cccnc1C(=O)NCCO` (single isomer, unassigned) [Example 135, 3-[7-(3,5-Dimethylisoxazol-4-yl)-2-oxo-1,2,4,5-tetrahydroimidazo[1,5,4-de][1,4]benzoxazin-4-yl]-N-(2-hydroxyethyl)pyridine-2-carboxamide], the IC50 in the assay on C-myc in KMS.12.BM cells is less than 1000 nM; on BRD4-BD2 [1], less than 100 nM; at BRD4-BD1 [2], less than 100 nM; with KMS.12.BM cells (Homo sapiens, 72 h), less than 1000 nM.

For `Cc1noc(C)c1-c1ccc2[nH]c(=O)n3c2c1OCC3c1cccnc1C(=O)NCC(F)(F)F` (single isomer, unassigned) [Example 136, 3-[7-(3,5-dimethylisoxazol-4-yl)-2-oxo-1,2,4,5-tetrahydroimidazo[1,5,4-de][1,4]benzoxazin-4-yl]-N-(2,2,2-trifluoroethyl)pyridine-2-carboxamide], the IC50 in the assay on C-myc in KMS.12.BM cells is less than 1000 nM; on BRD4-BD2 [1], less than 100 nM; on BRD4-BD1 [2] it was less than 100 nM; in the assay with KMS.12.BM cells (Homo sapiens, 72 h) it was less than 1000 nM.

Regarding `Cc1noc(C)c1-c1ccc2[nH]c(=O)n3c2c1OCC3c1ccccc1` (single isomer, unassigned) [Example 1A, 7-(3,5-Dimethylisoxazol-4-yl)-4-phenyl-4,5-dihydroimidazo[1,5,4-de][1,4]benzoxazin-2(1H)-one], the IC50 with C-myc in KMS.12.BM cells is less than 1000 nM; on BRD4-BD1 [3] it was not above 100 nM; in the assay with KMS.12.BM cells it was less than 1000 nM; at BRD4-BD2 [4], not above 100 nM.

For `Cc1noc(C)c1-c1ccc2[nH]c(=O)n3c2c1OCC3c1ccccc1` (single isomer, unassigned) [Example 1B, 7-(3,5-Dimethylisoxazol-4-yl)-4-phenyl-4,5-dihydroimidazo[1,5,4-de][1,4]benzoxazin-2(1H)-one], the IC50 on BRD4-BD1 [3] and at BRD4-BD2 [4] was 100 to 1000 nM throughout.

Source of the values: patent US10464947B2 (Incyte Corporation, priority 2013, dated 2019).
